One compound from ChEMBL document CHEMBL1159203, “Agelastatins C and D, new pentacyclic bromopyrroles from the sponge Cymbastela sp., and potent arthropod toxicity of (-)-agelastatin A” (J Nat Prod, 1998) can be followed below.

The data set relates to Artemia franciscana. The data set can be described thus: Toxicity against Artemia franciscana nauplii larvae. It is filed as organism-based. To be noted: in vivo.

The structures appear in SMILES notation.

Broadly, the LC50 is the concentration that kills 50% of the test population. In the case of `CN1C(=O)N[C@@]2(O)[C@@H]3NC(=O)c4ccc(Br)n4[C@@H]3C[C@@]12O`, the LC50 is listed as 220 ppm.
